Source: patent US7799821B2, “Therapeutic compounds” (Allergan, Inc., priority 2004, dated 2010)
pEC50, pIC50: −log10 of the molar value. Read-outs that look alike come from different tables or passages of the source.

Assays:
[1] = target: T1, hEP2/Gqs5 (Homo sapiens, UniProt P43116); assay: FLIPR calcium signal, hEP2; format: cell-based
T1 construct: expressed in transfected cells; host or cells: HEK-293(EBNA)
Description: (§1) HEK-293(EBNA) cells, stably expressing one type or subtype of recombinant human prostaglandin receptors (prostaglandin receptors expressed: hDP/Gqs5; hEP1; hEP2/Gqs5; hEP3A/Gqi5; hEP4/Gqs5; hFP; hIP; hTP), were cultured in 100 mm culture dishes in high-glucose DMEM medium containing 10% fetal bovine serum, 2 mM 1-glutamine, 250 μg/ml geneticin (G418) and 200 μg/ml hygromycin B as selection markers, and 100 units/ml penicillin G, 100 μg/ml streptomycin and 0.25 μg/ml amphotericin B. • (b) Calcium Signal Studies on the FLIPR™
(§2) Cells were seeded at a density of 5×10^4 cells per well in Biocoat® Poly-D-lysine-coated black-wall, clear-bottom 96-well plates (Becton-Dickinson) and allowed to attach overnight in an incubator at 37° C. Cells were then washed two times with HBSS-HEPES buffer (Hanks Balanced Salt Solution without bicarbonate and phenol red, 20 mM HEPES, pH 7.4) using a Denley Cellwash plate washer (Labsystems). After 45 minutes of dye-loading in the dark, using the calcium-sensitive dye Fluo-4 AM at a final concentration of 2 μM, plates were washed four times with HBSS-HEPES buffer to remove excess dye leaving 100 μl in each well. Plates were re-equilibrated to 37° C. for a few minutes.
(§3) Cells were excited with an Argon laser at 488 nm, and emission was measured through a 510-570 nm bandwidth emission filter (FLIPR™, Molecular Devices, Sunnyvale, Calif.). Drug solution was added in a 50 μl volume to each well to give the desired final concentration. The peak increase in fluorescence intensity was recorded for each well. On each plate, four wells each served as negative (HBSS-HEPES buffer) and positive controls (standard agonists: BW245C (hDP); PGE2 (hEP1; hEP2/Gqs5; hEP3A/Gqi5; hEP4/Gqs5); PGF2α (hFP); carbacyclin (hIP); U-46619 (hTP), depending on receptor). The peak fluorescence change in each drug-containing well was then expressed relative to the controls.
(§4) Compounds were tested in a high-throughput (HTS) or concentration-response (CoRe) format. In the HTS format, forty-four compounds per plate were examined in duplicates at a concentration of 10^−5 M. To generate concentration-response curves, four compounds per plate were tested in duplicates in a concentration range between 10^−5 and 10^−11 M. The duplicate values were averaged. In either, HTS or CoRe format each compound was tested on at least 3 separate plates using cells from different passages to give an n≧3.

[2] = target: T2, hEP4/Gqs5 (Homo sapiens, UniProt P35408); assay: FLIPR calcium signal, hEP4; format: cell-based
T2 construct: expressed in transfected cells; host or cells: HEK-293(EBNA)
Description: as §1, §2, §3, §4

[3] = target: T3, human EP2 receptors (Homo sapiens, UniProt P43116); assay: Competition radioligand binding ([3H]PGE2), EP2; conditions: read-out: BINDING IC50 HEP2
T3 construct: expressed in transfected cells; host or cells: HEK 293
Description: Competition binding experiments were performed in a medium containing Hank's balanced salt solution, […], membranes (˜60 μg protein) or 2×10^5 cells from HEK 293 cells stably expressing human EP2 receptors, [^3H]PGE2 (10 nM) and various concentrations of test compounds in a total volume of 300 μl. Reaction mixtures were incubated at 23° C. for 60 min, and were filtered over Whatman GF/B filters under vacuum. Filters were washed three times with 5 ml ice-cold buffer containing 50 mM Tris/HCl (pH 7.3). Non-specific binding was estimated in the presence of excess unlabeled PGE2 (10 μM). Binding data fitted to the binding model for a single class of binding sites, using nonlinear regression analysis. IC50 values thus obtained were converted to Ki using the equation of Ki=(IC50/(1+[L]/KD) where [L] represents PGE2 concentration (10 nM) and KD the dissociation constant for [^3H]PGE2 at human EP2 receptors (40 nM).
HEK-293 cells stably expressing the human or feline FP receptor, or EP1, EP2, or EP4 receptors were washed with TME buffer, scraped from the bottom of the flasks, and homogenized for 30 sec using a Brinkman PT 10/35 polytron. TME buffer was added to achieve a final 40 ml volume in the centrifuge tubes (the composition of TME is 100 mM TRIS base, 20 mM MgCl2, […]; 10N HCl is added to achieve a pH of 7.4).
The cell homogenate was centrifuged at 19000 r.p.m. for 20 min at 4° C. using a Beckman Ti-60 rotor. The resultant pellet was resuspended in TME buffer to give a final 1 mg/ml protein concentration, as determined by Biorad assay. Radioligand binding competition assays vs. [^3H-]17 —phenyl PGF2α (5 nM) were performed in a 100 μl volume for 60 min. Binding reactions were started by adding plasma membrane fraction. The reaction was terminated by the addition of 4 ml ice-cold TRIS-HCl buffer and rapid filtration through glass fiber GF/B filters using a Brandel cell harvester. The filters were washed 3 times with ice-cold buffer and oven dried for one hour.
[^3H-] PGE2 (specific activity 180 Ci mmol) was used as the radioligand for EP receptors. [^3H] 17-phenyl PGF2α was employed for FP receptor binding studies. Binding studies employing EP1, EP2, EP4 and FP receptors were performed in duplicate in at least three separate experiments. A 200 μl assay volume was used. Incubations were for 60 min at 25° C. and were terminated by the addition of 4 ml of ice-cold 50 mM TRIS-HCl, followed by rapid filtration through Whatman GF/B filters and three additional 4 ml washes in a cell harvester (Brandel). Competition studies were performed using a final concentration of 5 nM [^3H]—PGE2, or 5 nM [^3H] 17-phenyl PGF2α and non-specific binding determined with 10^−5M of unlabeled PGE2, or 17-phenyl PGF2α, according to receptor subtype studied.

[4] = FLIPR Ca2+ signal, HEK-293(EBNA), read-out: FUNCTIONAL EC50 HEP2
[5] = FLIPR Ca2+ signal, HEK-293(EBNA), read-out: FUNCTIONAL EC50 HEP4
[6] = read-out: FUNCTIONAL Ca2+ EC50 HEP2
[7] = read-out: FUNCTIONAL Ca2+ EC50 HEP4

T2 sequence (P35408 whole entry): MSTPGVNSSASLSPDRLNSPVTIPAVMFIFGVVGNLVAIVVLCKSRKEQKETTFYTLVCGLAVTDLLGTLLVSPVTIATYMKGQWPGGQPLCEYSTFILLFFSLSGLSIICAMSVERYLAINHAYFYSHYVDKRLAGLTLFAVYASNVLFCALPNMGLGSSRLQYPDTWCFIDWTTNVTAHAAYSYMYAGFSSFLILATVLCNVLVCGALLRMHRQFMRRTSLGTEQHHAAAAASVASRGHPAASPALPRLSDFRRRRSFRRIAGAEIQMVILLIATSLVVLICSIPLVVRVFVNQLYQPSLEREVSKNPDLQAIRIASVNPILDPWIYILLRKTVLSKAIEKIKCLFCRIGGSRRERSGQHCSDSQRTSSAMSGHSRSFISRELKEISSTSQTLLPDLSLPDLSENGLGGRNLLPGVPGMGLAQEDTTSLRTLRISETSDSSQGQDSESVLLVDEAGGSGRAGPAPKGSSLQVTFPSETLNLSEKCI
T3 sequence (P43116 whole entry): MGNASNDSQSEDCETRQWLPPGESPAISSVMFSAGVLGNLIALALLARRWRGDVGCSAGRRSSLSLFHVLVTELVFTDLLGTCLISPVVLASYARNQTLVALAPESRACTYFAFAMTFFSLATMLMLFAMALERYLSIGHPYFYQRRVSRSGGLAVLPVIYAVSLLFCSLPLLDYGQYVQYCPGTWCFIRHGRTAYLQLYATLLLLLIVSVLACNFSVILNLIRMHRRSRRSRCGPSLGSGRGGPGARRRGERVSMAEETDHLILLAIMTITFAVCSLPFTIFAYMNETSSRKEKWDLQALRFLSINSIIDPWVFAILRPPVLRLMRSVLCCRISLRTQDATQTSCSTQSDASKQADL
T1 sequence (P43116 whole entry): as above

| SMILES | pEC50 [1, 4] | also measured |
| --- | --- | --- |
| CCCC1(C(O)c2cccc([C@H]3[C@H](O)CC(=O)[C@@H]3CCCCCCC(=O)O)c2)CCC1 (some centres unmarked) | 5.28 |  |
| CCCC1(C(O)c2cccc([C@H]3[C@H](O)CC(=O)[C@@H]3C/C=C\CCCC(=O)NCC)c2)CCC1 (some centres unmarked) | < 5.00 | pEC50 [2, 5]: < 5.00 |
| CCCC1(C(O)c2ccc([C@H]3[C@H](O)CC(=O)[C@@H]3CCCCCCC(=O)OC)cc2)CCC1 (some centres unmarked) | < 5.00 |  |
| CCCC1(C(O)c2ccc([C@@H]3[C@@H](C/C=C\CCCC(=O)OC)[C@H](Cl)C[C@H]3O)cc2)CCC1 (some centres unmarked) | < 5.00 |  |
| CCCC1(C(O)c2ccc([C@H]3[C@H](O)CC(=O)[C@@H]3C/C=C\CCCC(=O)O)cc2)CCC1 (some centres unmarked) | 5.43 |  |
| CCCC1(C(O)c2ccc([C@H]3[C@H](O)CC(=O)[C@@H]3CCCCCCC(=O)O)cc2)CCC1 (some centres unmarked) | 6.20 |  |
| CCCC1(C(O)c2ccc([C@@H]3[C@@H](C/C=C\CCCC(=O)O)[C@H](Cl)C[C@H]3O)cc2)CCC1 (some centres unmarked) | 5.64 |  |
| CCCC1(C(O)c2ccc([C@@H]3[C@@H](CCCCCCC(=O)O)[C@H](Cl)C[C@H]3O)cc2)CCC1 (some centres unmarked) | 6.26 |  |
| COC(=O)CCCCCC[C@@H]1[C@@H](c2ccc(C(C)(C)C)cc2)[C@H](O)C[C@H]1Cl | < 5.00 |  |
| COC(=O)CCC/C=C\C[C@H]1C(=O)C[C@@H](O)[C@@H]1c1ccc(C(O)C2CCCCC2)cc1 (some centres unmarked) | < 5.00 | pEC50 [2, 5]: < 5.00 |
| O=C(O)CCC/C=C\C[C@H]1C(=O)C[C@@H](O)[C@@H]1c1ccc(C(O)C2CCCCC2)cc1 (some centres unmarked) | < 5.00 |  |
| COC(=O)CCCCCC[C@H]1C(=O)C[C@@H](O)[C@@H]1c1ccc(C(O)C2CCCCC2)cc1 (some centres unmarked) | < 5.00 |  |
| O=C(O)CCCCCC[C@H]1C(=O)C[C@@H](O)[C@@H]1c1ccc(C(O)C2CCCCC2)cc1 (some centres unmarked) | 6.35 |  |
| O=C(O)CCCCCC[C@@H]1[C@@H](c2ccc(C(O)C3CCCCC3)cc2)[C@H](O)C[C@H]1Cl (some centres unmarked) | 5.55 |  |
| CCCC1(C(O)c2cccc([C@@H]3[C@@H](Cc4cccc(OCC(=O)O)c4)[C@H](Cl)C[C@H]3O)c2)CCC1 (some centres unmarked) | 6.58 | pIC50 [3]: 5.28 |
| O=C(O)COC/C=C\C[C@@H]1[C@@H](c2ccc(C(O)C3CCCCC3)cc2)[C@H](O)C[C@H]1Cl (some centres unmarked) | 5.42 |  |
| O=C(O)COCCCC[C@@H]1[C@@H](c2ccc(C(O)C3CCCCC3)cc2)[C@H](O)C[C@H]1Cl (some centres unmarked) | 4.68 |  |
| O=C(O)COCC#CCC1[C@H](Cl)C[C@@H](O)[C@@H]1c1ccc(C(O)C2CCCCC2)cc1 (some centres unmarked) | 5.81 |  |
| O=C(O)CCC/C=C\C[C@H]1C(=O)C[C@@H](O)[C@@H]1c1ccc2c(c1)CCC2O (some centres unmarked) | 6.39 | pIC50 [3]: 5.64 |
| O=C(O)CCC/C=C\C[C@H]1C(=O)C[C@@H](O)[C@@H]1c1ccc(C2(O)CCC2)cc1 | < 5.00 |  |
| COC(=O)CCC/C=C\C[C@@H]1[C@@H](c2ccc(C3(O)CCC3)cc2)[C@H](O)C[C@H]1Cl | < 5.00 |  |
| CC(C)(CO)c1ccc([C@H]2[C@H](O)CC(=O)[C@@H]2CCCCCCC(=O)O)cc1 | 6.28 | pIC50 [3]: 4.73 |

| SMILES | pEC50 [1, 4] | also measured |
| --- | --- | --- |
| CC(C)(CO)c1ccc([C@@H]2[C@@H](CCCCCCC(=O)O)[C@H](Cl)C[C@H]2O)cc1 | 6.15 | pEC50 [2, 5]: < 5.00; pIC50 [3]: 5.05 |
| COC(=O)CCCCCC[C@H]1C(=O)C[C@@H](O)[C@@H]1c1ccc(C)cc1 | < 5.00 |  |
| COC(=O)CCC/C=C\C[C@@H]1[C@@H](c2ccc(CO)cc2)[C@H](O)C[C@H]1Cl | < 5.00 |  |
| O=C(O)CCC/C=C\C[C@@H]1[C@@H](c2ccc(CO)cc2)[C@H](O)C[C@H]1Cl |  | pIC50 [3]: 4.88 |
| COC(=O)CCCCCC[C@@H]1[C@@H](c2ccc(CO)cc2)[C@H](O)C[C@H]1Cl |  | pEC50 [2, 5]: < 5.00 |
| O=C(O)CCCCCC[C@@H]1[C@@H](c2ccc(CO)cc2)[C@H](O)C[C@H]1Cl | < 5.00 |  |
| CC(C)(C)C(O)c1ccc([C@@H]2[C@@H](C/C=C\CCCC(=O)O)[C@H](Cl)C[C@H]2O)cc1 (some centres unmarked) | 6.11 | pEC50 [2, 5]: < 5.00; pIC50 [3]: 5.81 |
| COC(=O)CCC/C=C\C[C@@H]1[C@@H](c2ccc(C(O)C(C)C)cc2)[C@H](O)C[C@H]1Cl (some centres unmarked) | < 5.00 | pEC50 [2, 5]: < 5.00 |
| COC(=O)CCCCCC[C@@H]1[C@@H](c2ccc(C(O)C(C)C)cc2)[C@H](O)C[C@H]1Cl (some centres unmarked) | < 5.00 | pEC50 [2, 5]: < 5.00 |
| COC(=O)CCC/C=C\C[C@H]1C(=O)CC[C@@H]1c1ccc([C@H](O)C2CCCCC2)cc1 |  | pEC50 [1, 6]: < 5.00 |
| O=C(O)CCCCCC[C@H]1C(=O)CC[C@@H]1c1ccc(C2(O)CCC2)cc1 |  | pEC50 [1, 6]: < 5.00 |
| CCCCCC(O)c1ccc([C@H]2CCC(=O)[C@@H]2CCCc2ccc(C(=O)O)s2)cc1 (some centres unmarked) |  | pEC50 [2, 7]: < 5.00 |
| O=C(O)CCC/C=C\C[C@@H]1[C@@H](c2ccc(C(O)C3CCCCC3)cc2)[C@H](O)C[C@H]1Cl (some centres unmarked) [drawing 77] | 6.41 |  |
| COC(=O)CCC/C=C\C[C@@H]1[C@@H](c2ccc(C(C)(C)CO)cc2)[C@H](O)C[C@H]1Cl [drawing 113] |  | pEC50 [2, 5]: < 5.00 |
| CC(C)(CO)c1ccc([C@@H]2[C@@H](C/C=C\CCCC(=O)O)[C@H](Cl)C[C@H]2O)cc1 [drawing 114] | < 5.00 |  |
| COC(=O)CCCCCC[C@@H]1[C@@H](c2ccc(C(C)(C)CO)cc2)[C@H](O)C[C@H]1Cl [drawing 115] | < 5.00 | pEC50 [2, 5]: 4.58 |
| COC(=O)CCC/C=C\C[C@@H]1[C@@H](c2ccc(C(C)(C)CO)cc2)[C@H](O)C[C@H]1Cl [drawing 117] | < 5.00 | pIC50 [3]: 4.31 |
| CC(C)(CO)c1ccc([C@@H]2[C@@H](C/C=C\CCCC(=O)O)[C@H](Cl)C[C@H]2O)cc1 [drawing 118] | 6.76 | pIC50 [3]: 5.38 |
| COC(=O)CCCCCC[C@@H]1[C@@H](c2ccc(C(C)(C)CO)cc2)[C@H](O)C[C@H]1Cl [drawing 119] | < 5.00 | pEC50 [2, 5]: < 5.00 |
| COC(=O)CCCCCC[C@@H]1[C@@H](c2ccc(C(O)C(C)(C)C)cc2)[C@H](O)C[C@H]1Cl (some centres unmarked) [drawing 131] | 5.30 | pEC50 [2, 5]: < 5.00 |
| COC(=O)CCCCCC[C@@H]1[C@@H](c2ccc(C(O)C(C)(C)C)cc2)[C@H](O)C[C@H]1Cl (some centres unmarked) [drawing 133] | 5.18 | pEC50 [2, 5]: < 5.00 |
| CCCC1([C@@H](O)c2ccc([C@H]3CCC(=O)[C@@H]3C/C=C\CCCC(=O)O)cc2)CCC1 [drawing 194] |  | pEC50 [1, 6]: < 5.00; pEC50 [2, 7]: < 5.00 |
